CC(O)(P(=O)(O)O)P(=O)(O)O.O
solubility (mole fraction)
Conditions	293.15 K	298.15 K	303.15 K	308.15 K	313.15 K	318.15 K	323.15 K	328.15 K
in acetic acid	0.00181	0.0019	0.00196	0.002	0.002	0.00214	0.00225	0.00224
in water	0.174	0.182	0.19	0.198	0.207	0.215	0.225	0.235

From BigSolDB 2.1
